Assay results from patent US20220251163A1 (Sinopep-Allsino Biopharmaceutical Co., Ltd., priority 2019, published 2022).
*1 amine or outer side, *2 acyl side, *3 side chain or, on linkers, in order; H or OH if unused. Where a SMILES comes first, the peptide text is derived from it. Side-chain parts run from the residue outwards. [ ]: non-standard residue; d: D form. The star is where a group is joined. C18 diacid = O=C(O)CCCCCCCCCCCCCCCCC(=O)*; γGlu = O=C(O)[C@H](CCC(=O)[*:2])N[*:1]; AEEA = NCCOCCOCC(=O)O; Aib = CC(C)(N)C(=O)O

Tests used:
mGLP-1R = biological target: T1, mGLP-1R (Mus musculus, UniProt O35659); experiment: GLP-1R agonist activity, cAMP in transfected HEK293 cells; assay type: cell-based
T1 construct: expressed in transfected cells; host or cells: HEK293
T1 sequence (O35659 22-463): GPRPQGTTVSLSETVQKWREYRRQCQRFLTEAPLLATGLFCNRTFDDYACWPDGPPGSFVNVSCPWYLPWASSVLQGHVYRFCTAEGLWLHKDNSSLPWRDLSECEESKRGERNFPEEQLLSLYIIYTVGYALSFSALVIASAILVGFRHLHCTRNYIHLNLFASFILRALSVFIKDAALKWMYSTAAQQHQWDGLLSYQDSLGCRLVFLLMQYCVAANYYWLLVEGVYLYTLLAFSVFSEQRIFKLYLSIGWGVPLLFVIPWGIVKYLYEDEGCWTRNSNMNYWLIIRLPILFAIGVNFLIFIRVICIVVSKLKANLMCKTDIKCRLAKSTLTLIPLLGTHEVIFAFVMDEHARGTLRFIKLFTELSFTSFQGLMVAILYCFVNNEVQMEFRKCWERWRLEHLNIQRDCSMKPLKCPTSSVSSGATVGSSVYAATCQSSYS

mGIPR = biological target: T2, mGIPR (Mus musculus, UniProt Q0P543); experiment: GIPR agonist activity, cAMP in transfected HEK293 cells; assay type: cell-based
T2 construct: expressed in transfected cells; host or cells: HEK293
T2 sequence (Q0P543 19-460): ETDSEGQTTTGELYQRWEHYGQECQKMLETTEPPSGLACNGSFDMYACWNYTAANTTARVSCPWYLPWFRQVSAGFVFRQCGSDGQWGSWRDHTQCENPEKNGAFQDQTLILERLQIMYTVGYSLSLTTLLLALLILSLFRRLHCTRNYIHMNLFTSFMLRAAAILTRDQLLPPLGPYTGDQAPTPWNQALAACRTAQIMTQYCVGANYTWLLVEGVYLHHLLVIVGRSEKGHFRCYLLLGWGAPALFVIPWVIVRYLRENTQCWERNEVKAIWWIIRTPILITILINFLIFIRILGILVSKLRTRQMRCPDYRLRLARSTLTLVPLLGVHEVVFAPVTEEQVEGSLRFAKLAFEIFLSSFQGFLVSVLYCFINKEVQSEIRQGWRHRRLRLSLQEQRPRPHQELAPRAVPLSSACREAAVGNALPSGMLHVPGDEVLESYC
Description: HEK293 cells were co-transfected with cDNA encoding GLP-1R or GIPR. In a test for determining the compound, the cells were inoculated in a 96-well plate 2 h in advance, the polypeptide compound was dissolved with DMSO, and diluted to different multiples with a culture medium containing 0.1% bovine serum albumin and added to the co-transfected cells.

ob/ob mice = experiment: Blood glucose reducing experiment, single subcutaneous injection in ob/ob mice; assay type: in vivo; details: 100 μg/kg single s.c.; for Blood glucose at different time after administration, 0 h: 0 h (before administration); for Blood glucose at different time after administration, 0 h / Blood glucose at different time after administration, 2 h / Blood glucose at different time after administration, 4 h / Blood glucose at different time after administration, 6 h / Blood glucose at different time after administration, 10 h / Blood glucose at different time after administration, 24 h / Blood glucose at different time after administration, 34 h / AUC0-24 h Glu: X ± s, n = 7; for AUC0-24 h Glu: blood glucose curve area within 24 h; for AUC0-24 h Glu Decrease rate: versus model control group;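 as to all read-outs here: random blood glucose read at each time point, decrease rate given as percentage fall versus the model control group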
Description: The mice in each group received random blood glucose value measurement before (0 h) administration and 2, 4, 6, 10 and 24 h after administration, and then the time for measuring the random blood glucose was adjusted and prolonged to 34, 48, 58 or 72 h after administration according to the blood glucose condition of the mice in each group. Meanwhile, the random weight of the mice in each group before (0 h) administration and 24 h after administration was weighed, and then the random weight of the mice corresponding to the random blood glucose measurement condition 48 or 72 h after administration was weighed. The blood glucose decrease rate, the blood glucose curve area (AUC0-24 h Glu) within 24 h after administration and the decrease rate were calculated according to the following formula.
Blood glucose decrease rate=(blood glucose in the model control group−blood glucose in the administration group)/blood glucose in the model control group×100%
BG0, BG2, BG4, BG6, BG10 and BG24 represented the blood glucose values before administration (0 h) and 2, 4, 6, 10 and 24 h after administration respectively.
AUC0-24 h Glu(mmol/Lh·r) decrease rate=(model control group AUC0-24 h Glu−administration group AUC0-24 h Glu/model control group AUC0-24 h Glu×100%
Experiments were carried out twice, at an interval of 8-10 days.

[1] = Effect on random weight of ob/ob mice after single subcutaneous injection; assay type: in vivo; details: 100 μg/kg single s.c., X ± s, n = 7
Description: The mice in each group received random blood glucose value measurement before (0 h) administration and 2, 4, 6, 10 and 24 h after administration, and then the time for measuring the random blood glucose was adjusted and prolonged to 34, 48, 58 or 72 h after administration according to the blood glucose condition of the mice in each group. Meanwhile, the random weight of the mice in each group before (0 h) administration and 24 h after administration was weighed, and then the random weight of the mice corresponding to the random blood glucose measurement condition 48 or 72 h after administration was weighed.

SMILES | EC50 (mGLP-1R) [pM] | EC50 (mGIPR) [pM] | Blood glucose at different time after administration, 0 h (ob/ob mice) [mmol/L] | Decrease rate of blood glucose at different time after administration, 2 h (ob/ob mice) [%] | Blood glucose at different time after administration, 2 h (ob/ob mice) [mmol/L] | Decrease rate of blood glucose at different time after administration, 4 h (ob/ob mice) [%] | Blood glucose at different time after administration, 4 h (ob/ob mice) [mmol/L] | Decrease rate of blood glucose at different time after administration, 6 h (ob/ob mice) [%] | Blood glucose at different time after administration, 6 h (ob/ob mice) [mmol/L] | Decrease rate of blood glucose at different time after administration, 10 h (ob/ob mice) [%] | Blood glucose at different time after administration, 10 h (ob/ob mice) [mmol/L] | Decrease rate of blood glucose at different time after administration, 24 h (ob/ob mice) [%] | Blood glucose at different time after administration, 24 h (ob/ob mice) [mmol/L] | Decrease rate of blood glucose at different time after administration, 34 h (ob/ob mice) [%] | Blood glucose at different time after administration, 34 h (ob/ob mice) [mmol/L] | Decrease rate of blood glucose at different time after administration, 48 h (ob/ob mice) [%] | AUC0-24 h Glu (ob/ob mice) [mmol·h/L] | AUC0-24 h Glu Decrease rate (ob/ob mice) [%] | Changes of random body weight at different time after administration, 0 h [1] [g] | Random body weight at different time after administration, 0 h [1] [g] | further results
CC[C@H](C)[C@H](NC(=O)[C@H](CCCCN)NC(=O)[C@H](CC(=O)O)NC(=O)[C@H](CC(C)C)NC(=O)[C@H](C)NC(=O)[C@@H](NC(=O)[C@H](CO)NC(=O)[C@H](Cc1ccc(O)cc1)NC(=O)[C@H](CC(=O)O)NC(=O)[C@H](CO)NC(=O)[C@@H](NC(=O)[C@H](Cc1ccccc1)NC(=O)[C@@H](NC(=O)CNC(=O)[C@H](CCC(=O)O)NC(=O)[C@H](C)NC(=O)[C@@H](N)Cc1ccc(O)cc1)[C@@H](C)O)[C@@H](C)O)[C@@H](C)CC)C(=O)N[C@@H](C)C(=O)N[C@@H](CCC(N)=O)C(=O)N[C@@H](CCCCNC(=O)COCCOCCNC(=O)COCCOCCNC(=O)CC[C@H](NC(=O)CCCCCCCCCCCCCCCCC(=O)O)C(=O)O)C(=O)N[C@@H](C)C(=O)N[C@@H](Cc1ccccc1)C(=O)N[C@H](C(=O)N[C@@H](CCC(N)=O)C(=O)N[C@@H](Cc1c[nH]c2ccccc12)C(=O)N[C@@H](CC(C)C)C(=O)N[C@H](C(=O)N[C@@H](C)C(=O)NCC(=O)NCC(=O)N1CCC[C@H]1C(=O)N[C@@H](CO)C(=O)N[C@@H](CO)C(=O)NCC(=O)N[C@@H](C)C(=O)N1CCC[C@H]1C(=O)N1CCC[C@H]1C(=O)N1CCC[C@H]1C(=O)N[C@@H](CO)C(N)=O)[C@@H](C)CC)C(C)C [ID NO: 4] | 1.49 | 5.21 | 20.43 ± 0.68 | 50.0 | 10.21 ± 1.06 | 51.6 | 9.89 ± 0.83 | 52.9 | 9.63 ± 0.95 | 51.7 | 9.86 ± 0.96 | 46.1 | 11.01 ± 0.83 | 28.7 | 14.56 ± 1.42 | 15.2 | 255.33 ± 20.13 | 50.0 | 0.0 ± 0.0 | 43.6 ± 1.0 | Changes of random body weight at different time after administration, 24 h [1]: -1.4 ± 0.2 g; Random body weight at different time after administration, 24 h [1]: 42.2 ± 1.0 g; Changes of random body weight at different time after administration, 48 h [1]: -0.6 ± 0.1 g; Random body weight at different time after administration, 48 h [1]: 42.9 ± 1.1 g
CC[C@H](C)[C@H](NC(=O)[C@H](CCCCN)NC(=O)[C@H](CC(=O)O)NC(=O)[C@H](CC(C)C)NC(=O)[C@H](C)NC(=O)[C@@H](NC(=O)[C@H](CO)NC(=O)[C@H](Cc1ccc(O)cc1)NC(=O)[C@H](CC(=O)O)NC(=O)[C@H](CO)NC(=O)[C@@H](NC(=O)[C@H](Cc1ccccc1)NC(=O)[C@@H](NC(=O)CNC(=O)[C@H](CCC(=O)O)NC(=O)C(C)(C)NC(=O)[C@@H](N)Cc1ccc(O)cc1)[C@@H](C)O)[C@@H](C)O)[C@@H](C)CC)C(=O)N[C@@H](C)C(=O)N[C@@H](CCC(N)=O)C(=O)N[C@@H](CCCCNC(=O)COCCOCCNC(=O)COCCOCCNC(=O)CC[C@H](NC(=O)CCCCCCCCCCCCCCCCC(=O)O)C(=O)O)C(=O)N[C@@H](C)C(=O)N[C@@H](Cc1ccccc1)C(=O)N[C@H](C(=O)N[C@@H](CCC(N)=O)C(=O)N[C@@H](Cc1c[nH]c2ccccc12)C(=O)N[C@@H](CC(C)C)C(=O)N[C@H](C(=O)N[C@@H](C)C(=O)NCC(=O)NCC(=O)N1CCC[C@H]1C(=O)N[C@@H](CO)C(=O)N[C@@H](CO)C(=O)NCC(=O)N[C@@H](C)C(=O)N1CCC[C@H]1C(=O)N1CCC[C@H]1C(=O)N1CCC[C@H]1C(=O)N[C@@H](CO)C(N)=O)[C@@H](C)CC)C(C)C [ID NO: 6] (H-Y[Aib]EGTFTSDYSIALDKIAQK([AEEA-AEEA-γGlu-C18 diacid])AFVQWLIAGGPSSGAPPPS-NH2) | 2.58 | 9.29 | 20.64 ± 0.77 | 52.7 | 9.76 ± 0.83 | 56.6 | 8.96 ± 0.77 | 58.6 | 8.55 ± 0.96 | 51.9 | 9.93 ± 0.76 | 49.0 | 10.53 ± 1.21 | 36.4 | 13.13 ± 2.21 | 13.8 | 246.81 ± 18.95 | 51.7 | 0.0 ± 0.0 | 43.5 ± 0.6 | Changes of random body weight at different time after administration, 24 h [1]: -1.5 ± 0.2 g; Random body weight at different time after administration, 24 h [1]: 42.1 ± 0.7 g; Changes of random body weight at different time after administration, 48 h [1]: -0.8 ± 0.1 g; Random body weight at different time after administration, 48 h [1]: 42.7 ± 0.7 g
